Measured values: patent publication US12606529B2, “Sulfur and amide tropolone inhibitors of nucleotidyl transferases and uses therefor” (Saint Louis University, priority 2019, dated 2026)
In brackets after ≈: the same amount, converted by molar mass. Like-named read-outs stand apart in the source and are kept apart here.

Assays:
[1] = in vitro; details: human, HepDES19 cells
Description: Cells used for toxicity and HBV studies. […] Cells were maintained in Dulbecco's modified Eagle's medium (DMEM)/F12 media supplemented with 10% fetal bovine serum (FBS) and 1% penicillin/streptomycin (P/S) with 1 μg/mL tetracycline. Synchronized expression of HBV pgRNA was induced by removing tetracycline from the culture medium.
Cytotoxicity Assays. Qualitative assessments of cytotoxicity were done visually by inspecting the cells in the primary screening assays. […] The next day the compounds were added at 0.78 to 100 μM in a final concentration of 1% (v/v) DMSO, and the cells were incubated for 24 hours under conditions identical to those employed for the viral replication inhibition assays. Mitochondrial toxicity was measured by incubating the cells with 0.25 mg/mL thiazolyl blue tetrazolium bromide (MTT, SigmaAldrich Chemical Co.), the cultures were incubated for 60 mM, metabolites were solubilized in acidic isopropanol, and absorbance was read at 570 nm. CC50 values were calculated by non-linear curve fitting using GraphPad Prism using the three-parameter variable-response log(inhibitor)-versus-response algorithm with the bottom value set to zero.

[2] = system: HBV replication; assay: HBV replication inhibition in HepDES19 cells (strand-preferential qPCR); details: for EC50: Hepatitis B virus
Description: Cells used for toxicity and HBV studies.
HBV replication inhibition studies. HepDES19 cells were seeded in 96-well plates at 4×10^4 cells per well in the absence of tetracycline. Test compounds in a final DMSO concentration of 1% were applied to cells 48 hours after induction of HBV replication and cells were incubated with compounds for 72 hours. Cells were washed in 200 μL of phosphate buffered saline (PBS) and lysed in 150 μL of core lysis buffer (10 mM Tris pH 7.4, 1% Tween20, 150 mM NaCl). Cells were incubated at room temperate on an orbital shaker at 350 rpm for 40 minutes. Cell lysate was transferred to a 96 well polymerase chain reaction (PCR) plate and centrifuged at 3300×g for 5 minutes. The supernatant (50 μL) from the cell lysate was transferred to a 96-well PCR plate and mixed with 20 units of micrococcal nuclease and 100 μM CaCl2. The lysate was incubated for 1 hour at 37° C., and then the nuclease was inactivated at 70° C. for ten minutes. Qiagen protease (0.005 Anson units) was added to the lysate and the mixture was incubated overnight. Qiagen protease was then inactivated at 95° C. for ten minutes.
The crude lysate was used as the template for strand-preferential quantitative polymerase chain reaction (q-PCR) analysis. Quantitative PCR was performed with 40 cycles of 95° C. for 15 s and 60° C. for 1 minute employing the Kappa Probe Force universal PCR master mix.

[3] = system: C. neoformans var. grubii, KN99; assay: C. neoformans growth inhibition assay (limiting dilution); type: cell-based, Cryptococcus neoformans; details: Cryptococcus neoformans, 48 h, 48 h, 35° C., read-out: C. neoformans MIC80
Description: Cell types used for C. neoformans studies. All inhibition assays were performed with C. neoformans var. grubii, KN99 (serotype A, MAT). Two clinical strains of C. neoformans var. grubii, serotype A, were provided by Tamara Doering and Andre Spec. […] Cells were diluted to OD650 0.001 in YNB-02 02 (0.67% yeast nitrogen base, 0.2% dextrose, pH 7.0 with 50 mM MOPs)+1% DMSO prior to addition to the plates for the inhibition assays.
C. neoformans growth inhibition assays. Compounds were tested in a limiting dilution assay with a starting optical density (at 650 nm) of 0.001 in YNB-02 plus 1% DMSO. Cells plus compound were incubated in 96-well clear round bottom plates covered with a Breath-easy® membrane without shaking for 48 hours at 35° C. Before measuring cell density, plates were shaken on a microtiter plate shaker at 900 rpm for 3 minutes to resuspend cells and optical density was measured at 650 nm. […] Each assay was done in triplicate and all values are the average of two or more independent assays. The data are presented as the average cell density as a percent of DMSO-only treated cells. MICs are reported as the minimal concentration needed to inhibit 80% of C. neoformans growth relative to vehicle-treated controls.

[4] = system: HSV-1; assay: Anti-HSV-1 replication assay (Vero cells, plaque titer); type: cell-based, herpes simplex virus 1; details: for log reduction at 5 µM: compound at 5 μM, read-out: HSV-1 suppression 5 μM; for log reduction at 1 µM: compound at 1 μM, read-out: HSV-1 suppression 1 μM
[5] = target: T1, human RNaseH1 (Homo sapiens, UniProt O60930); assay: Biochemical inhibition of human RNaseH1 activity
T1 sequence (O60930 1-286): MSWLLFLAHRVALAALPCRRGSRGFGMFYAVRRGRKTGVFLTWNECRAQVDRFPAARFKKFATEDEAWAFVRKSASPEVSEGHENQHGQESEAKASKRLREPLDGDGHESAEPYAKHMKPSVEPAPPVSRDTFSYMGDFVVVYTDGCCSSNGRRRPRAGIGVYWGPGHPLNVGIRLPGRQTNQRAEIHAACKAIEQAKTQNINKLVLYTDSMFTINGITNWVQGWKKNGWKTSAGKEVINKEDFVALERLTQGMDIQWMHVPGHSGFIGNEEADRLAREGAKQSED
Description: Biochemical inhibition of human RNaseH1 activity. Quantitative inhibition of the human RNaseH1 in the biochemical assays was assessed using a molecular beacon assay as described previously (Edwards et al., 2017). Recombinant human RNaseH 1 (0.3 μg) was incubated with 100 nM RNA:DNA substrate, 50 mM HEPES pH 8.0, 100 mM NaCl, 2 mM Tris(2-carboxyethyl)phosphine hydrochloride (TCEP), 0.05% Tween20, 5 units of RNaseOut, test compounds (0 to 500 μM), and 5% DMSO in a 100 μL reaction volume. The substrate was formed by annealing a complementary RNA oligonucleotide to a hairpin DNA oligonucleotide to hold the hairpin DNA oligonucleotide in an open conformation. The DNA oligonucleotide has a 5′ fluorescein reporter and a 3′ black hole quencher. When the RNA is degraded from the substrate the DNA oligonucleotide closes to form a hairpin structure, decreasing in signal intensity. Reactions were initiated with 5 mM MgCl2 and fluorescence was read using a Synergy HTS multi-mode plate reader at 37° C. Alternatively, the HBV RNaseH version used was MBP-HRHgtCΔ5, a genotype C isolate which lacks the C-terminal 35 amino acids of the HBV RNaseH domain that are predicted to be unstructured. Quantitative inhibition of the human RNaseH1 in biochemical assays was assessed using a FRET-based RNaseH assay under conditions previously reported for an RNaseH molecular beacon assay (Edwards et al., 2017). […] Cleavage of the RNA strand released the fluorescein from quenching, increasing fluorescence. Reactions were monitored for 90 min at 37° C. in a plate reader and initial reaction rates were calculated. Reactions contained escalating concentrations of the compounds.

[6] = HepDES19, 72 h, Table 2 amides, HBV replication, HepDES19 cells, plus-polarity DNA, 72 h
[7] = Table 2 amides, tested 0.19 to 50 μM
[8] = Human alphaherpesvirus 1, Vero, Table 2 amides, values separated by / are repeats
[9] = Table 2 amides, read-out: HuRH1 IC50
[10] = HepDES19, read-out: EC50 against HBV replication
[11] = CC50, Table 3 sulfur compounds, MTT
[12] = HepDES19, read-out: HBV EC50, Table 3 sulfur compounds, HBV replication, HepDES19 cells
[13] = Human alphaherpesvirus 1, Vero, Table 3 sulfur compounds, values separated by / are repeats
[14] = Table 3 sulfur compounds, read-out: Hu RNaseH IC50

| SMILES | CC50 at 24 h ([1]; CC50 (μM), Table 2 amides, MTT) | EC50 [2, 6] | MIC80 [3, 7] | log reduction at 5 µM [4, 8] | IC50 [5, 9] | CC50 at 24 h ([1]; CC50) | EC50 [2, 10] | CC50 at 24 h [1, 11] | EC50 [2, 12] | MIC80 ([3]; Table 3 sulfur compounds) | Reduction of HSV-1 titers / suppression of HSV-1 replication at 5 μM ([4]; 5 μM, plaque forming units (PFU)/ml) | log reduction at 1 µM [4, 13] | log reduction at 5 µM [4, 13] | IC50 [5, 14] | Therapeutic index (CC50/EC50) for HBV (TI, SI) [2] | log reduction at 0.33 µM ([4]; Human alphaherpesvirus 1, Vero, Table 3 sulfur compounds, compound at 0.33 μM, values separated by / are repeats, read-out: HSV-1 suppression 0.33 μM) | SI (CC50/EC50) ([2]; Table 2 amides, cytotoxicity CC50 over HBV replication EC50) | SIApparent (huRH1 IC50/EC50) ([5]; Table 2 amides, huRH1 IC50 over HBV replication EC50) |
| --- | --- | --- | --- | --- | --- | --- | --- | --- | --- | --- | --- | --- | --- | --- | --- | --- | --- | --- |
| C#CCCC1(CCNC(=O)c2cc(O)c(=O)c(O)cc2C)N=N1 [compound 384] | 17.6 ± 8.9 µM | 0.66 ± 0.7 µM | 3.5 µM (≈ 1.1 µg/mL) | 0.77 | 111 ± 48.8 µM | – | – | – | – | – | – | – | – | – | – | – | – | – |
| Cc1cc(O)c(=O)c(O)cc1C(=O)N1CCCCC1 [compound 390] | 24.9 ± 11.6 µM | 0.31 ± 0.1 µM | 22 µM (≈ 5.79 µg/mL) | 0.52 | 106 ± 64.6 µM | > 20 µM | 0.31 µM | – | – | – | – | – | – | – | – | – | – | – |
| O=c1c(O)cccc(Sc2ccccc2)c1O [compound 691] | – | – | – | – | – | – | – | 19.5 µM | 43.6 µM | 1 µM (≈ 0.246 µg/mL) | > 3 log10 | 0.72 | 5.69 | 31.9 µM | – | – | – | – |
| CCCCSc1ccc(SCCCC)c(O)c(=O)c1O [compound 694] | – | – | – | – | – | – | – | 1.8 µM | 12.6 µM | 2 µM (≈ 0.629 µg/mL) | – | 4.85 | 5.86 | 127 µM | 0.14 | – | – | – |
| O=c1c(O)cccc(S(=O)(=O)c2cccc3ccccc23)c1O [compound 698] | – | – | – | – | – | – | – | 14.8 µM | 6.18 µM | 49 µM (≈ 16.1 µg/mL) | – | -0.35 | 4.85 | 234 µM | – | -0.31 | – | – |
| O=c1c(O)cccc(S)c1O [compound 701] | – | – | – | – | – | – | – | 63.9 µM | 7.6 µM | 5 µM (≈ 0.851 µg/mL) | – | – | 0.94 | 46 µM | – | – | – | – |
| O=c1c(O)c(SCc2ccccc2)ccc(SCc2ccccc2)c1O [compound 703] | – | – | – | – | – | – | – | 8.2 µM | 10.6 µM | 6.75 µM (≈ 2.58 µg/mL) | – | 4.56 | 5.88 | 49.6 µM | – | – | – | – |
| O=c1c(O)cccc(SCCc2ccccc2)c1O [compound 704] | – | – | – | – | – | – | 52 µM | 21.6 µM | 52 µM | 1.4 µM (≈ 0.384 µg/mL) | – | 0.06 | 5.72 | 24.7 µM | – | – | – | – |
| O=c1c(O)cccc(S(=O)(=O)Cc2ccccc2)c1O [compound 705] | – | – | – | – | – | – | – | 8.4 µM | 2.76 µM | 50 µM (≈ 14.6 µg/mL) | – | 0.19 | 3.55 | 135 µM | – | – | – | – |
| Cc1cc(O)c(=O)c(O)cc1C(=O)Nc1ccc(F)nc1 [compound 707] | 19.4 ± 8.4 µM | 0.54 µM | 36 µM (≈ 10.4 µg/mL) | -0.18 | 148 ± 22.3 µM | – | – | – | – | – | – | – | – | – | – | – | 36.2 | 277 |
